Holding throughout (assay type): in vivo, mouse
One experiment deals with db/db mice. As to the kind of experiment: Wnt inhibitor (LGK-974) treatment in db/db mice. The settings on record: 5 mg/kg body weight orally by gavage. As for the experimental part: (FIG. 38A) Postprandial blood glucose measurements in the Wnt inhibitor treatments in db/db mice and untreated control db/db mice. LGK-974 (Wnt inhibitor) was treated at 5 mg/kg body weight dose orally by gavage. (FIG. 38B) GTT analysis in the Wnt inhibitor treatments in db/db mice and untreated control db/db mice. N=6 were analyzed in each group. (FIG. 38C) Area under curve (AUC) in the Wnt inhibitor treatments in db/db mice and untreated control db/db mice. N=6 were analyzed in each group. (FIG. 38D) Physiological parameters such as body weight, epididymal fat, kidney weight, liver weight and heart weight in the Wnt inhibitor treatments in db/db mice and untreated control db/db mice. N=6 were analyzed in each group. (FIG. 38E) MTS and Sirius red staining analysis in the Wnt inhibitor treatments in db/db mice and untreated control db/db mice. Representative pictures of 30× are shown. N=6 were analyzed in each group. Relative area fibrosis (RAF) and relative collagen deposition (RCD) were quantified using Image J software program. (FIG. 38F) MTS and Sirius red staining analysis in the heart sections in the Wnt inhibitor treatments in db/db mice and untreated control db/db mice. Representative pictures of 20× are shown. N=6 were analyzed in each group. […] N=6 were analyzed in each group. […]

The next experiment has as its system diabetic CD-1 mice. As to the kind of experiment: Wnt inhibitor (LGK974) treatment in diabetic CD-1 mice, renal histology, GR and β-catenin. On the procedure:
FIG. 24A-24J show inhibition of Wnt signaling abolished the fibrogenic phenotype in mice. (FIG. 24A) Immunohistochemical analysis of -catenin expression in the kidneys of control and diabetic CD-1 and C57BL/6 mice. n=8 biologically independent mice/group combined from two independent experiments were evaluated. Scale bar 50 μm. Representative images are shown; original magnification 200×. (FIG. 24B) Relative mRNA expression determined by qRT-PCR of Axin2, Tcf and fibronectin, in kidneys of control and diabetic CD-1 and C57BL/6 mice. n=6 biologically independent mice/group combined from two experiments were evaluated. Expression was normalized to the internal control 18S. (FIG. 24C) Schematic diagram representing the treatment protocol of Wnt inhibitor (LGK974; 5 mg/kg body weight) in diabetic CD-1 mice and (FIG. 24D) in UUO mice. (FIG. 24E) Masson trichrome and Sirius red staining in the kidneys of diabetic and Wnt inhibitor-treated diabetic CD-1 mice. Representative images (original magnification 300×) are shown. Relative area of fibrosis (%) and relative collagen deposition (%) were measured using the ImageJ program. n=8 biologically independent mice/group combined from two experiments were evaluated. Scale bar 50 μm. (FIG. 24F) Masson trichrome and Sirius red staining in the kidneys of UUO and Wnt inhibitor-treated UUO mice. Representative images (original magnification 300×) are shown. Relative area of fibrosis (%) and relative collagen deposition (%) were measured using the ImageJ program. n=8 biologically independent mice/group combined from two experiments were evaluated. Scale bar 50 μm. (FIGS. 24G-24H) GR protein levels in CD31-positive cells were analyzed by immunofluorescence in the kidneys of Wnti-treated diabetic mice and Wnti-treated UUO mice. FITC-labeled GR, rhodamine-labeled CD31 and DAPI were used. Merged images and representative pictures are shown; original magnification 300×. n=7 biologically independent mice/group combined from four experiments were evaluated. Scale bar 50 μm. (FIGS. 24I-24J) Immunohistochemical analysis of active -catenin expression in Wnti-treated diabetic mice and Wnti-treated UUO mice. n=7 biologically independent mice/group combined from three experiments were evaluated. Scale bar 30 μm. Data are mean SEM. In all panels, one-way Anova with Tukey multiple comparison post hoc test was used to calculate statistical significance. Significance—*p<0.05, **p<0.01, ***p<0.001.
A single IP dose of 200 mg/kg STZ was used to induce diabetes in CD-1 mice.
In one experiment, male mice were randomized to one of 4 groups sixteen weeks after induction of diabetes: (i) untreated, (ii) fenofibrate (100 mg/kg), (iii) simvastatin (40 mg/kg), or (iv) Wnt inhibitor (LGK974; 5 mg/kg). In each case, mice were treated for 4 weeks and compared to untreated diabetic CD-1 mice. In another experiment, male diabetic CD-1 mice were randomized into one of 3 groups: (i) untreated (vehicle), (ii) etomoxir (20 mg/kg) or (iii) C75 (15 mg/kg); in each case mice were treated (IP) three times/week for a total 4 weeks.
Morphological Evaluation. A point-counting method was utilized to evaluate the relative area of the mesangial matrix. The inventors analyzed PAS-stained glomeruli from each mouse using a digital microscope screen grid containing 540 (27×20) points. Masson's trichrome-stained images were evaluated by ImageJ software, and the fibrotic areas were estimated.
Sirius red staining. Deparaffinized sections were incubated with picrosirius red solution for 1 hour at room temperature. The slides were washed twice with acetic acid solution for 30 seconds per wash. The slides were then dehydrated in absolute alcohol three times, cleared in xylene, and mounted with a synthetic resin. Sirius red staining was analyzed using ImageJ software, and fibrotic areas were quantified.
Immunohistochemistry. […]

Experiment [1] relates to isolated kidney ECs of diabetic CD-1 mice. As to the kind of experiment: Fatty acid oxidation ([14CO2] release) in isolated kidney endothelial cells.
Method: (FIG. 31B) Fatty acid oxidation, as represented by [^14CO2]released. [^14C]palmitate was used as substrate and CPM counts were normalized to protein. In both cases, endothelial cells isolated from n=5 biologically independent mice/group were analyzed in triplicate. Data are mean±SEM. One-way Anova with Tukey multiple comparison post hoc test was used to calculate statistical significance. Significance—*p<0.05, **p<0.01, ***p<0.001. Fatty Acid Oxidation. Cultured isolated kidney endothelial cells were incubated with medium containing 0.75 mmol/L palmitate (conjugated to 2% free fatty acid-free BSA/[^14C]palmitate at 2 μCi/mL) for 2 h. One mL of the culture medium was transferred to a sealable tube, the cap of which housed a Whatman filter paper disc. ^14CO2 trapped in the media was then released by acidification of media using 60% perchloric acid. Radioactivity that had become adsorbed onto the filter discs was then quantified by liquid scintillation counting.

Structures are written as SMILES.

`Cc1cc(-c2ncc(CC(=O)Nc3ccc(-c4cnccn4)cn3)cc2C)ccn1` [LGK974]: in the experiment with db/db mice, the fibrogenic phenotype result is reported as “abolishes fibrogenic phenotype”. Moreover, in the experiment with diabetic CD-1 mice (5 mg/kg), the ECM deposition entry is “greatly diminished”, the collagen accumulation entry was “greatly diminished”, the glomerulosclerosis result is listed as “greatly diminished” and the “relative area of fibrosis” value is given as “greatly diminished”. Besides, the “level of β-catenin” value in the experiment on diabetic CD-1 mice (kidney immunohistochemistry) is on record as “suppressed the level of β-catenin”. For the same compound, the “endothelial GR” value in the experiment with diabetic CD-1 mice (kidney, GR in CD31-positive cells) is listed as “substantially restored endothelial GR”. Besides, the “level of FAO ([14CO2] release)” value in experiment [1] is reported as “able to restore the level of FAO”.

Values taken from patent publication US20250179167A1, “IL-6 INHIBITOR AS TREATMENT FOR NEPHROPATHY” (YALE UNIVERSITY, priority 2022, published 2025).
